Measured values reported in the supplement of paper PMC8612539.
≈ marks a conversion by molar mass, not a printed value.

How the values were obtained:
[1] = tested on: Enterococcus spp.; assay: minimum inhibitory concentration (MIC)
Experimental: (§1)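 Broth microdilution MIC (Sensititre BOPO7F bovine plate, CLSI methods) of 19 antimicrobials against field isolates of P. multocida, M. haemolytica, H. somni (deep nasopharyngeal swabs) and E. coli, Enterococcus spp. (rectal swabs) from weaned dairy heifers. Incubation 16-24 h at 35 C. MIC is the lowest concentration preventing visible growth. Values with <= or > lie at the tested range limits. Trimethoprim-sulfamethoxazole is given as the trimethoprim component of a 1:19 mixture.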

[2] = tested on: Mannheimia haemolytica; assay: minimum inhibitory concentration (MIC)
Experimental: as §1

CNC(C)C1CCC(N)C(OC2C(N)CC(N)C(OC3OCC(C)(O)C(NC)C3O)C2O)O1 (centres undefined) [Gentamicin]
minimum inhibitory concentration [µg/mL]
Conditions | [1] | [2]
isolate (source animal id): 2 | 8 (≈ 16.8 µM) | –
isolate (source animal id): 8 | – | 2 (≈ 4.19 µM)
isolate (source animal id): 13 | – | 2 (≈ 4.19 µM)
isolate (source animal id): 18 | – | 2 (≈ 4.19 µM)
isolate (source animal id): 21 | – | 2 (≈ 4.19 µM)
isolate (source animal id): 25 | – | 4 (≈ 8.38 µM)
isolate (source animal id): 27 | – | 4 (≈ 8.38 µM)
isolate (source animal id): 28 | – | 2 (≈ 4.19 µM)
isolate (source animal id): 30 | – | 2 (≈ 4.19 µM)
isolate (source animal id): 31 | – | 4 (≈ 8.38 µM)
isolate (source animal id): 32 | – | 4 (≈ 8.38 µM)
isolate (source animal id): 34 | – | 4 (≈ 8.38 µM)
isolate (source animal id): 35 | 16 (≈ 33.5 µM) | –
isolate (source animal id): 36 | – | 4 (≈ 8.38 µM)
isolate (source animal id): 37 | – | 4 (≈ 8.38 µM)
isolate (source animal id): 40 | – | 4 (≈ 8.38 µM)
isolate (source animal id): 41 | – | 2 (≈ 4.19 µM)
isolate (source animal id): 42 | 8 (≈ 16.8 µM) | –
isolate (source animal id): 43 | – | 4 (≈ 8.38 µM)
isolate (source animal id): 44 | 16 (≈ 33.5 µM) | –
isolate (source animal id): 46 | – | 4 (≈ 8.38 µM)
isolate (source animal id): 49 | – | 4 (≈ 8.38 µM)
isolate (source animal id): 50 | – | 4 (≈ 8.38 µM)
isolate (source animal id): 51 | – | 2 (≈ 4.19 µM)
isolate (source animal id): 52 | – | 2 (≈ 4.19 µM)
isolate (source animal id): 53 | – | 4 (≈ 8.38 µM)
isolate (source animal id): 55 | – | 2 (≈ 4.19 µM)
isolate (source animal id): 56 | – | 2 (≈ 4.19 µM)
isolate (source animal id): 57 | – | 16 (≈ 33.5 µM)
isolate (source animal id): 79 | 16 (≈ 33.5 µM) | –
isolate (source animal id): 88 | 4 (≈ 8.38 µM) | –
isolate (source animal id): 91 | 4 (≈ 8.38 µM) | –
isolate (source animal id): 92 | 2 (≈ 4.19 µM) | –
isolate (source animal id): 100 | – | 4 (≈ 8.38 µM)
isolate (source animal id): 103 | – | 4 (≈ 8.38 µM)
isolate (source animal id): 107 | – | 4 (≈ 8.38 µM)
isolate (source animal id): 108 | – | 4 (≈ 8.38 µM)
isolate (source animal id): 111 | 4 (≈ 8.38 µM) | –
isolate (source animal id): 112 | – | 2 (≈ 4.19 µM)
isolate (source animal id): 113 | – | 16 (≈ 33.5 µM)
isolate (source animal id): 121 | – | 4 (≈ 8.38 µM)
isolate (source animal id): 122 | 16 (≈ 33.5 µM) | 4 (≈ 8.38 µM)
isolate (source animal id): 123 | 8 (≈ 16.8 µM) | 16 (≈ 33.5 µM)
isolate (source animal id): 126 | – | 4 (≈ 8.38 µM)
isolate (source animal id): 133 | 16 (≈ 33.5 µM) | 2 (≈ 4.19 µM)
isolate (source animal id): 135 | – | > 16
isolate (source animal id): 138 | – | 4 (≈ 8.38 µM)
isolate (source animal id): 141 | – | 16 (≈ 33.5 µM)
isolate (source animal id): 142 | – | 4 (≈ 8.38 µM)
isolate (source animal id): 145 | – | 4 (≈ 8.38 µM)
isolate (source animal id): 149 | – | 2 (≈ 4.19 µM)
isolate (source animal id): 151 | – | 2 (≈ 4.19 µM)
isolate (source animal id): 152 | – | 2 (≈ 4.19 µM)
isolate (source animal id): 154 | – | 2 (≈ 4.19 µM)
isolate (source animal id): 158 | 16 (≈ 33.5 µM) | –
isolate (source animal id): 159 | – | 4 (≈ 8.38 µM)
isolate (source animal id): 162 | – | 4 (≈ 8.38 µM)
isolate (source animal id): 168 | 8 (≈ 16.8 µM) | –
isolate (source animal id): 169 | 8 (≈ 16.8 µM) | –
isolate (source animal id): 170 | – | 4 (≈ 8.38 µM)
isolate (source animal id): 171 | 4 (≈ 8.38 µM) | 2 (≈ 4.19 µM)
isolate (source animal id): 172 | – | 4 (≈ 8.38 µM)
isolate (source animal id): 173 | – | 4 (≈ 8.38 µM)
isolate (source animal id): 175 | 8 (≈ 16.8 µM) | –
isolate (source animal id): 177 | 8 (≈ 16.8 µM) | –
isolate (source animal id): 179 | – | 4 (≈ 8.38 µM)
isolate (source animal id): 180 | – | 2 (≈ 4.19 µM)
isolate (source animal id): 181 | 8 (≈ 16.8 µM) | –
isolate (source animal id): 182 | 8 (≈ 16.8 µM) | –
isolate (source animal id): 183 | 8 (≈ 16.8 µM) | 2 (≈ 4.19 µM)
isolate (source animal id): 186 | – | 4 (≈ 8.38 µM)
isolate (source animal id): 187 | 8 (≈ 16.8 µM) | 2 (≈ 4.19 µM)
isolate (source animal id): 188 | – | 2 (≈ 4.19 µM)
isolate (source animal id): 190 | 8 (≈ 16.8 µM) | 2 (≈ 4.19 µM)
isolate (source animal id): 191 | – | 4 (≈ 8.38 µM)
isolate (source animal id): 192 | – | 2 (≈ 4.19 µM)
isolate (source animal id): 194 | 4 (≈ 8.38 µM) | –
isolate (source animal id): 195 | 8 (≈ 16.8 µM) | –
isolate (source animal id): 197 | 8 (≈ 16.8 µM) | –
isolate (source animal id): 201 | – | 2 (≈ 4.19 µM)
isolate (source animal id): 202 | – | 4 (≈ 8.38 µM)
isolate (source animal id): 209 | – | 4 (≈ 8.38 µM)
isolate (source animal id): 211 | 8 (≈ 16.8 µM) | 2 (≈ 4.19 µM)
isolate (source animal id): 214 | 16 (≈ 33.5 µM) | –
isolate (source animal id): 220 | – | 4 (≈ 8.38 µM)
isolate (source animal id): 221 | – | 4 (≈ 8.38 µM)
isolate (source animal id): 222 | 8 (≈ 16.8 µM) | –
isolate (source animal id): 223 | 8 (≈ 16.8 µM) | 4 (≈ 8.38 µM)
isolate (source animal id): 228 | 8 (≈ 16.8 µM) | –
isolate (source animal id): 230 | 8 (≈ 16.8 µM) | –
isolate (source animal id): 233 | – | 4 (≈ 8.38 µM)
isolate (source animal id): 235 | 4 (≈ 8.38 µM) | –
isolate (source animal id): 236 | 4 (≈ 8.38 µM) | –
isolate (source animal id): 237 | – | 4 (≈ 8.38 µM)
isolate (source animal id): 239 | 4 (≈ 8.38 µM) | –
isolate (source animal id): 241 | 4 (≈ 8.38 µM) | 4 (≈ 8.38 µM)
isolate (source animal id): 244 | 4 (≈ 8.38 µM) | –
isolate (source animal id): 246 | 8 (≈ 16.8 µM) | –
isolate (source animal id): 247 | 4 (≈ 8.38 µM) | –
isolate (source animal id): 250 | 8 (≈ 16.8 µM) | –
isolate (source animal id): 252 | 8 (≈ 16.8 µM) | 4 (≈ 8.38 µM)
isolate (source animal id): 253 | – | 4 (≈ 8.38 µM)
isolate (source animal id): 259 | – | 2 (≈ 4.19 µM)
isolate (source animal id): 260 | – | 4 (≈ 8.38 µM)
isolate (source animal id): 262 | – | 2 (≈ 4.19 µM)
isolate (source animal id): 268 | 4 (≈ 8.38 µM) | –
isolate (source animal id): 282 | 8 (≈ 16.8 µM) | 2 (≈ 4.19 µM)
isolate (source animal id): 285 | 16 (≈ 33.5 µM) | –
isolate (source animal id): 287 | – | 4 (≈ 8.38 µM)
isolate (source animal id): 288 | – | 2 (≈ 4.19 µM)
isolate (source animal id): 289 | 4 (≈ 8.38 µM) | –
isolate (source animal id): 290 | 4 (≈ 8.38 µM) | –
isolate (source animal id): 291 | – | 2 (≈ 4.19 µM)
isolate (source animal id): 293 | – | 4 (≈ 8.38 µM)
isolate (source animal id): 296 | 8 (≈ 16.8 µM) | –
isolate (source animal id): 298 | 4 (≈ 8.38 µM) | 2 (≈ 4.19 µM)
isolate (source animal id): 299 | – | 2 (≈ 4.19 µM)
isolate (source animal id): 300 | – | 2 (≈ 4.19 µM)
isolate (source animal id): 301 | 4 (≈ 8.38 µM) | –
isolate (source animal id): 302 | – | 2 (≈ 4.19 µM)
isolate (source animal id): 304 | – | 2 (≈ 4.19 µM)
isolate (source animal id): 306 | – | 2 (≈ 4.19 µM)
isolate (source animal id): 308 | – | 2 (≈ 4.19 µM)
isolate (source animal id): 309 | – | 2 (≈ 4.19 µM)
isolate (source animal id): 310 | 4 (≈ 8.38 µM) | –
isolate (source animal id): 313 | – | 4 (≈ 8.38 µM)
isolate (source animal id): 318 | – | 2 (≈ 4.19 µM)
isolate (source animal id): 320 | 8 (≈ 16.8 µM) | 2 (≈ 4.19 µM)
isolate (source animal id): 321 | – | 4 (≈ 8.38 µM)
isolate (source animal id): 323 | – | 2 (≈ 4.19 µM)
isolate (source animal id): 324 | – | 4 (≈ 8.38 µM)
isolate (source animal id): 326 | – | 4 (≈ 8.38 µM)
isolate (source animal id): 328 | – | 4 (≈ 8.38 µM)
isolate (source animal id): 329 | – | 4 (≈ 8.38 µM)
isolate (source animal id): 331 | 8 (≈ 16.8 µM) | –
isolate (source animal id): 333 | 4 (≈ 8.38 µM) | 4 (≈ 8.38 µM)
isolate (source animal id): 335 | – | 4 (≈ 8.38 µM)
isolate (source animal id): 338 | – | 4 (≈ 8.38 µM)
isolate (source animal id): 341 | 16 (≈ 33.5 µM) | –
